Assay [1] has as its system human neutrophils. As to the kind of experiment: NETosis assay. In kind it is cell-based. As to conditions: PMA 50 nM; for PMA-induced NETosis (NETosis positive events over time): T1/T3 10 μM, Trifluoperazine 100 ng/ml, Incucyte, 8 hr. On the procedure: NETosis assay: The assay was carried out as previously described (Gupta et al., “A High-Throughput Real-Time Imaging Technique To Quantify NETosis and Distinguish Mechanisms of Cell Death in Human Neutrophils.”, J Immunol. 2018; 200:869-879, herein incorporated by reference in its entirety). Briefly, human neutrophils (2×10^6 cells/mL) were incubated for 5 minutes in the dark at RT with the NUCLEAR-ID Red DNA dye to stain nuclei (Enzo Life Sciences, Inc.). Cells were washed twice and resuspended in 1 mL of RPMI media. NUCLEAR-ID Red stained-neutrophils were plated (20,000 neutrophils per 100 μL per well) in a 96-well flat microplate. Stimulation of neutrophils NETosis was performed with PMA alone (50 nM), or with PMA in the presence of T1 compound (10 μM) or T3 compound (10 μuM). Unstimulated neutrophils served as a negative control. Neutrophils stimulated with PMA in the presence of Trifluoperazine (Stelazine, 100 ng/ml) were used as positive control. A final concentration of 0.1 μM of the membrane impermeable dsDNA fluorescent Sytox® Green nucleic acid stain (Life Technologies, Inc.) was added to the plated cells concomitantly with the stimuli. Neutrophils were imaged within 10 minutes of plating using phase contrast, red (800 ms exposure) and green (400 ms exposure) channels in the IncuCyte ZOOM™ platform (Essen BioScience, Inc.), located within a cell incubator at 37° C. with 5% CO2. Four image sets from distinct regions per well using a 20x dry objective lens were taken every 20-30 minutes, for 8 hr. For red channel, filters were applied to exclude objects below radius of 10 μm, fluorescence threshold of 0.5 red corrected units, and area of 15 μm^2. The filters applied the green channel excluded objects below the radius of 10 μm, fluorescence threshold of 1.00 green corrected units, and area of 100 μm^2. The green object count divided by the red object count represents the percentage of cells going through NETosis of total neutrophils. Liposome preparation: 2.5% DSPE-PEG3400-Maleimide liposomes were prepared in 250 mM ammonium sulfate. Liposomes were prepared at a molar ration of 56.5:41: 2.5:0.09 of HSPC: Cholesterol: DSPE-PEG-Mal: DilC18 (5)-DS.
Besides degranulation, neutrophils can kill pathogens extracellularly by releasing neutrophil extracellular traps (NETs), a process known as NETosis. Examination of NETosis induced by PMA was monitored by an Incucyte live-cell analysis system (FIG. 4). PMA treatment produced a steady increase in NETosis positive events starting at 2 hours after treatment. […] An increase was only observed after 4 hours when T1 was used and after 5 hours when T3 was used.

Assay [2] relates to human neutrophils. As to conditions: cited from earlier work.
Assay [3] concerns human neutrophils. The note with it: by inhibiting NAD(P)H; cited from earlier work.
Assay [4] has as its system human neutrophils. The note with it: cited from earlier work. This is another data set of the same source.
The test system of a further assay is DSS colitis model mice. In words: DSS colitis mouse model. In kind it is in vivo, C57BL/6 mice. As to conditions: 3% DSS 5 days; 2.5 mg/kg of T3 on days 5, 7 and 9. On the procedure: Next, the ability of T3 administration, to treat colitis, a disease caused at least in part by neutrophil cytotoxicity, was tested in a mouse model. Colitis was induced in C57BL/6 mice by administration of 3% dextran sulfate sodium (DSS) for 5 consecutive days in drinking water. 2.5 mg/kg of T3, in its three formulations, was administered on days 5, 7 and 9. Colitis induction by DSS caused a pronounced shortening of the mouse colon.
Lower doses of TENN-T3 were also tested. The targeted liposomes were administered at days 5 and 7 and mice were sacrificed on day 10 and colon length was measured.

The test system of assay [5] is peripheral blood neutrophils. As to the kind of experiment: LPS-induced inflammation mouse model, surface CD11b of peripheral blood neutrophils. The note with it: LPS 1 mg/kg intraperitoneal; T3 (Z isomer) 3 mg/kg IV after 1 hour; blood after 3 hours. The assay is classed as in vivo, Balb/C mice. On the procedure:
The in-vivo effect of the three compositions of T3 was examined in a mouse model of inflammation. Balb/C mice were intraperitoneal injected with 1 mg/kg of LPS to induce inflammation and neutrophil toxicity. After 1 hour, T3—free molecule, T3 within a liposome, and T3 within a targeted liposome (TENN-T3) were IV administered at a final concentration of 3 mg/kg body weight. After 3 hours 0.5 mL of blood was drawn from each mouse and degranulation of peripheral blood neutrophils was evaluated by flow cytometry analysis of surface CD11b levels (neutrophils were identified by Ly6G staining). […] Overall, it is clear that T3 inhibits neutrophil activation in vivo and that targeting greatly enhances the effect.

We go through five molecules from US12194034B2, “Neutrophil exocytosis inhibitors” (IMMUNYX PHARMA LTD., priority 2021, dated 2025).

Turning to `CCN(CC)CCC(C)(C)C(=O)/C(=C/c1cccc([N+](=O)[O-])c1)n1cncn1` [T1], in the assay on human neutrophils [1] (compound 10 μM), the “time after which an increase in NETosis was observed” value was greater than 4 h. In the assay on human neutrophils [1], the “PMA-induced NETosis (NETosis positive events over time)” value is “initially inhibited an increase in NETosis completely”.

For the molecule `CC(C)(C)C(=O)/C(=C/c1cccc([N+](=O)[O-])c1)n1cncn1` [Nexinhib-20], the “inhibition of degranulation (known)” value in the assay with human neutrophils [2] was “known to inhibit degranulation”.

As to `c1ccc2c(c1)[I+]c1ccccc1-2` [DPI, Diphenylenciodonium], the “ROS production (known effect)” value in the assay on human neutrophils [3] is on record as “nearly completely abolish ROS production”.

On to `CN1CCN(CCCN2c3ccccc3Sc3ccc(C(F)(F)F)cc32)CC1` [Trifluoperazine, reference compound], for which the “PMA-induced NETosis (NETosis positive events over time)” value with human neutrophils [1] is “steady reduction”. Besides, the “inhibition of NETosis (known)” value in the assay on human neutrophils [4] is reported as “known inhibitor of NETosis”.

Take `CN1CCC(N2CCC(C(=O)/C(=C/c3cccc([N+](=O)[O-])c3)n3cncn3)CC2)CC1` [T3]: in the assay on DSS colitis model mice, the colon length entry is on record as “comparable to a negative control”. Besides, the “reduction in degranulation (surface CD11b of blood neutrophils)” value in assay [5] is “moderate but not statistically significant reduction”. Besides, in the assay on human neutrophils [1] (compound 10 μM), the “NETosis events compared with control” value is “very similar to control” and the “time after which an increase in NETosis was observed” value was greater than 5 h. Also, in the assay with human neutrophils [1], the “PMA-induced NETosis (NETosis positive events over time)” value is on record as “initially inhibited an increase in NETosis completely”.
